Results from PubChem BioAssay AID2060511 (Molecular Pharmacology Branch, DTP, NCI, 2025).

System: 422866-222-R5-J1-PDC spheroids with HUVEC/MSC, viability
Assay: Anticancer human tumor 422866-222-R5-J1-PDC patient-derived pancreatic adenocarcinoma cell line growth inhibition [GQUAD]
Details: for IC50: curve of first compound; for viability, T/C: stronger effect = lower value
Procedure, shortened: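 Viability of tumor cells grown as complex spheroids with endothelial and stromal cells, exposed to drug combinations. Top concentration at or near clinical Cmax (else 10 microM), diluted in half-log increments.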

[1] = second compound 0.0316 µM, first compound 0.0316 µM
[2] = second compound 0.0316 µM, first compound 0.1 µM
[3] = second compound 0.0316 µM, first compound 0.316 µM
[4] = second compound 0.0316 µM, first compound 1 µM
[5] = second compound 0.0316 µM, first compound 3.16 µM
[6] = second compound 0.0316 µM, first compound 10 µM
[7] = second compound 0.1 µM, first compound 0.0316 µM
[8] = second compound 0.1 µM, first compound 0.1 µM
[9] = second compound 0.1 µM, first compound 0.316 µM
[10] = second compound 0.1 µM, first compound 1 µM
[11] = second compound 0.1 µM, first compound 3.16 µM
[12] = second compound 0.1 µM, first compound 10 µM
[13] = second compound 0.316 µM, first compound 0.0316 µM
[14] = second compound 0.316 µM, first compound 0.1 µM
[15] = second compound 0.316 µM, first compound 0.316 µM
[16] = second compound 0.316 µM, first compound 1 µM
[17] = second compound 0.316 µM, first compound 3.16 µM
[18] = second compound 0.316 µM, first compound 10 µM
[19] = second compound 1 µM, first compound 0.0316 µM
[20] = second compound 1 µM, first compound 0.1 µM
[21] = second compound 1 µM, first compound 0.316 µM
[22] = second compound 1 µM, first compound 1 µM
[23] = second compound 1 µM, first compound 3.16 µM
[24] = second compound 1 µM, first compound 10 µM
[25] = second compound 3.16 µM, first compound 0.0316 µM
[26] = second compound 3.16 µM, first compound 0.1 µM
[27] = second compound 3.16 µM, first compound 0.316 µM
[28] = second compound 3.16 µM, first compound 1 µM
[29] = second compound 3.16 µM, first compound 3.16 µM
[30] = second compound 3.16 µM, first compound 10 µM
[31] = second compound 10 µM, first compound 0.0316 µM
[32] = second compound 10 µM, first compound 0.1 µM
[33] = second compound 10 µM, first compound 0.316 µM
[34] = second compound 10 µM, first compound 1 µM
[35] = second compound 10 µM, first compound 3.16 µM
[36] = second compound 10 µM, first compound 10 µM
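Further: spheroids exposed to compounds for seven days before reading.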
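Wherever viability, T/C is given: percent viability relative to DMSO vehicle control taken as 100%.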

## C#Cc1c(F)ccc2cc(O)cc(-c3ncc4c(N5CC6CCC(C5)N6)nc(OCC56CCCN5CC(F)C6)nc4c3F)c12 (stereo unspecified) + CN(C)c1ccc(Nc2c3ccc(NC(=O)CCN4CCCC4)cc3nc3cc(NC(=O)CCN4CCCC4)ccc23)cc1
Second compound 0.0316 µM
  IC50: 1.13 µM
Second compound 0.1 µM
  IC50: 1.25 µM
Second compound 0.316 µM
  IC50: 1.19 µM
Second compound 1 µM
  IC50: 1.11 µM
Second compound 3.16 µM
  IC50: 0.919 µM
Second compound 10 µM
  IC50: 1.59 µM
[1]
  viability, T/C: 97.9%
[2]
  viability, T/C: 91.8%
[3]
  viability, T/C: 87.2%
[4]
  viability, T/C: 50.8%
[5]
  viability, T/C: 36.8%
[6]
  viability, T/C: 29.4%
[7]
  viability, T/C: 102%
[8]
  viability, T/C: 83.4%
[9]
  viability, T/C: 89.6%
[10]
  viability, T/C: 51.1%
[11]
  viability, T/C: 39.9%
[12]
  viability, T/C: 27.3%
[13]
  viability, T/C: 93.2%
[14]
  viability, T/C: 85.9%
[15]
  viability, T/C: 64.5%
[16]
  viability, T/C: 53.5%
[17]
  viability, T/C: 39.3%
[18]
  viability, T/C: 30.2%
[19]
  viability, T/C: 96.4%
[20]
  viability, T/C: 83.6%
[21]
  viability, T/C: 65.7%
[22]
  viability, T/C: 50.1%
[23]
  viability, T/C: 42.1%
[24]
  viability, T/C: 33.6%
[25]
  viability, T/C: 80.5%
[26]
  viability, T/C: 96.1%
[27]
  viability, T/C: 68.6%
[28]
  viability, T/C: 49.5%
[29]
  viability, T/C: 40.3%
[30]
  viability, T/C: 32.2%
[31]
  viability, T/C: 84.6%
[32]
  viability, T/C: 85.1%
[33]
  viability, T/C: 78.5%
[34]
  viability, T/C: 50.8%
[35]
  viability, T/C: 45.5%
[36]
  viability, T/C: 27.2%

## CC(=O)O[C@H]1C(=O)[C@@]2(C)[C@H]([C@H](OC(=O)c3ccccc3)[C@]3(O)C[C@H](OC(=O)[C@H](O)[C@@H](NC(=O)c4ccccc4)c4ccccc4)C(C)=C1C3(C)C)[C@]1(OC(C)=O)CO[C@@H]1C[C@@H]2O + CN(C)c1ccc(Nc2c3ccc(NC(=O)CCN4CCCC4)cc3nc3cc(NC(=O)CCN4CCCC4)ccc23)cc1
Second compound 0.0316 µM
  IC50: > 10 µM
Second compound 0.1 µM
  IC50: > 10 µM
Second compound 0.316 µM
  IC50: > 10 µM
Second compound 1 µM
  IC50: > 10 µM
Second compound 3.16 µM
  IC50: > 10 µM
Second compound 10 µM
  IC50: > 10 µM
[1]
  viability, T/C: 78.2%
[2]
  viability, T/C: 72.8%
[3]
  viability, T/C: 63.9%
[4]
  viability, T/C: 66.5%
[5]
  viability, T/C: 75.6%
[6]
  viability, T/C: 86%
[7]
  viability, T/C: 88%
[8]
  viability, T/C: 60.7%
[9]
  viability, T/C: 65.1%
[10]
  viability, T/C: 67.6%
[11]
  viability, T/C: 74.3%
[12]
  viability, T/C: 79.7%
[13]
  viability, T/C: 87.6%
[14]
  viability, T/C: 63.1%
[15]
  viability, T/C: 51.3%
[16]
  viability, T/C: 72.4%
[17]
  viability, T/C: 77.2%
[18]
  viability, T/C: 81.4%
[19]
  viability, T/C: 59.5%
[20]
  viability, T/C: 60.5%
[21]
  viability, T/C: 74.6%
[22]
  viability, T/C: 65.9%
[23]
  viability, T/C: 71%
[24]
  viability, T/C: 85.6%
[25]
  viability, T/C: 62.9%
[26]
  viability, T/C: 68.9%
[27]
  viability, T/C: 68.1%
[28]
  viability, T/C: 65.2%
[29]
  viability, T/C: 76.3%
[30]
  viability, T/C: 87.6%
[31]
  viability, T/C: 63.8%
[32]
  viability, T/C: 67.1%
[33]
  viability, T/C: 76.5%
[34]
  viability, T/C: 79.9%
[35]
  viability, T/C: 80.3%
[36]
  viability, T/C: 92.4%

## O=c1[nH]cc(F)c(=O)[nH]1 + CN(C)c1ccc(Nc2c3ccc(NC(=O)CCN4CCCC4)cc3nc3cc(NC(=O)CCN4CCCC4)ccc23)cc1
Second compound 0.0316 µM
  IC50: > 10 µM
Second compound 0.1 µM
  IC50: > 10 µM
Second compound 0.316 µM
  IC50: > 10 µM
Second compound 1 µM
  IC50: > 10 µM
Second compound 3.16 µM
  IC50: > 10 µM
Second compound 10 µM
  IC50: > 10 µM
[1]
  viability, T/C: 96.8%
[2]
  viability, T/C: 86.5%
[3]
  viability, T/C: 97%
[4]
  viability, T/C: 84.5%
[5]
  viability, T/C: 82.2%
[6]
  viability, T/C: 66.2%
[7]
  viability, T/C: 99.7%
[8]
  viability, T/C: 74.6%
[9]
  viability, T/C: 104%
[10]
  viability, T/C: 75.5%
[11]
  viability, T/C: 71.2%
[12]
  viability, T/C: 72%
[13]
  viability, T/C: 88.6%
[14]
  viability, T/C: 79%
[15]
  viability, T/C: 75.4%
[16]
  viability, T/C: 88.9%
[17]
  viability, T/C: 67.3%
[18]
  viability, T/C: 68.4%
[19]
  viability, T/C: 88.6%
[20]
  viability, T/C: 77%
[21]
  viability, T/C: 86.5%
[22]
  viability, T/C: 79%
[23]
  viability, T/C: 70.8%
[24]
  viability, T/C: 67.9%
[25]
  viability, T/C: 78.8%
[26]
  viability, T/C: 79.4%
[27]
  viability, T/C: 86.2%
[28]
  viability, T/C: 88.1%
[29]
  viability, T/C: 65.9%
[30]
  viability, T/C: 53.6%
[31]
  viability, T/C: 91.3%
[32]
  viability, T/C: 108%
[33]
  viability, T/C: 93.8%
[34]
  viability, T/C: 84%
[35]
  viability, T/C: 75.2%
[36]
  viability, T/C: 76.6%
